Reference: patent US11819499B2, “Single-dose, ready-to-use injectable formulations” (BioSplice Therapeutics, Inc., priority 2016, dated 2023)
Marks after values point to notes of the source that are not given here.

What was measured:
Type in all cases: physicochemical
[1] = Reslurry experiments (polymorph screen) in 39 pure and binary solvents at RT and 50° C. for 5 days, XRD of wet and dry samples
Experimental: Reslurry experiments in various solvents were performed. Approximately 30-80 mg of the starting solid (a non-stoichiometric or stoichiometric hydrate of Form 1 having between 1% and about 20% by weight water) was slurried in 39 different solvents (pure and binary solvents; the ratio of organic solvent/water (V/V) was 95%/5%) at RT and 50° C. for 5 days. Three solvates, one hydrate, and eleven non-solvated forms were identified. […] XRD of both wet and dry samples were scanned (FIG. 12A (dry sample)).
The slurry experiments identified 3 solvated forms from wet samples (Solvates 1, 2, and 3); 2 non-stoichiometric hydrates of Form 1 (Forms 12 and 13); and 11 non-solvated forms (Forms 1-11). In some instances, similar XRD scans with minor differences were obtained. These were considered to be part of the same class (e.g., the same form). For example, XRD scans of Form 2 and Form 2* were similar and were considered to belong to the same class. The solvated forms were obtained from wet sample analysis; after drying, the sample indicated a different XRD.
Solvate 1 was obtained from acetone at RT, and after drying, a low crystallinity solid was generated. Solvate 2 was obtained from acetone (at RT) and acetone/water (at RT), and after drying, Form 4** was generated. Solvate 3 was obtained from EtOH/water at RT, and after drying, Form 2 was generated.

[2] = Drying or heating in a DSC chamber followed by XRD (form conversion)
Experimental: The Form 1 solid was dried at 75° C. under vacuum overnight, and XRD, DSC, and TGA scans were performed. […] However, the DSC scans indicated the absence of endotherm. The loss of the early peak on the DSC scan had no effect on the XRD trace, showing that the wide endotherm between 50-100° C. on DSC scan was due to the free solvent.
The Form 1 solid was heated in a DSC chamber to 305° C. (past the endotherm/exotherm around 280° C.), and then scanned by XRD. […] It can be concluded that the endotherm/exotherm around 280° C. might be due to melting/crystallization events.
The Form 2 solid was heated in a DSC machine to 90° C. (past the wide endotherm between 50-100° C.); to 270° C. (past the endotherm/exotherm around 240° C.); and finally to 330° C. (past the […]). The residual solid was analyzed by XRD. […] The wide endotherm between 50-100° C. might be free solvent or hydrate. […] Thus, the exotherm around 290° C. was a re-crystallization event. According to an XRD and DSC overlay, the behavior of Form 2* was similar to Form 2.
This has been confirmed for Forms 1 and 2.
Form 13 solid was heated in a DSC chamber to 170° C. (past the endotherm between 50-100° C.), and then scanned by XRD. […] It can be concluded that the endotherm between 50-100° C. is due to bonded water.
Form 13 solid was heated in a DSC chamber to 330° C. (past the endotherm/exotherm around 300° C.), and then scanned by XRD. […] It can be concluded that the endotherm/exotherm is due to melting/crystallization events.

[3] = Competitive slurry experiments between polymorph forms (15 forms mixed, 3-5 days, XRD)
Experimental: In order to find out the thermodynamic stability between the different forms, several competitive slurry experiments were carried out. Form 1, Form 2, Form 2*, Form 3, Form 4, Form 4*, Form 4**, Form 5, Form 7, Form 8, Form 9, Form 10, Form 11, Form 11*, and Form 13 (10 mg for each) was mixed and slurried in 2 mL of solvent at both RT and 50° C. The solids were slurried for 3-5 days and then analyzed by XRD.

[4] = Exposure to relative humidity / air followed by XRD; details: for XRD after drying at 50° C. under vacuum: after air exposure overnight, then dried at 50° C. under vacuum; for XRD after exposure to air overnight: exposed to air overnight
Excerpt: FIGS. 15A-15D are scans of Form 1 in the presence of increasing relative humidity (RH), an example of a non-stoichiometric or stoichiometric hydrate of polymorph Form 1 of the compound of Formula (I). FIG. 15A is an x-ray powder diffraction scan of Form 1 exposed to 10% RH as the anhydrous Form 1. FIG. 15B is an x-ray powder diffraction scan of Form 1 exposed to 20% RH as a partial hydrate of Form 1. FIG. 15C is an x-ray powder diffraction scan of Form 1 exposed to 30% RH as a hydrate of Form 1 (≈10-12% water uptake). FIG. 15D is an x-ray powder diffraction scan of Form 1 exposed to 90% RH as a full hydrate of Form 1 (≈17-20% water uptake). […] The hydrate lost its water below 30% RH. […] The crystal lattice of Form 1 expanded when water was sorbed, giving rise to XRD peaks at ˜5, ˜7 and ˜11 degrees while maintaining the main XRD pattern. The hydrates of Form 1 of a compound of Formula (I) (Form 11) were fully reversible, and lost water when exposed to % RH of less than 20%, turning Form 11 to hydrated forms of Form 1 and to the anhydrous Form 1. Solvates 1 and 2 solids were exposed to air overnight, and then analyzed by XRD. After the analysis, the solids were dried at 50° C. under vacuum, and then analyzed by XRD again.

[5] = Dynamic vapor sorption (DVS) scan
Excerpt: The purity of the Form 13 sample was 98.8%; the KF of an undried Form 13 sample was 35.7%.

[6] = reslurry in Acetonitrile/water (5% water), RT
[7] = reslurry in EA/water (5% water), RT
[8] = reslurry in Heptane/water (5% water), RT
[9] = reslurry in IPAc/water (5% water), RT
[10] = reslurry in MA/water (5% water), 50° C.
[11] = reslurry in MIBK/water (5% water), RT
[12] = reslurry in MeOH/water (5% water), RT
[13] = reslurry in MtBE/water (5% water), RT
[14] = reslurry in n-Butyl acetate/water (5% water), RT
[15] = reslurry in EtOH/water (5% water), RT
[16] = reslurry in Acetone/water (5% water), RT

For `CC(C)CC(=O)Nc1cncc(-c2ccc3[nH]nc(-c4nc5c(-c6cccc(F)c6)cncc5[nH]4)c3c2)c1` [Form 12, N-(5-(3-(7-(3-fluorophenyl)-3H-imidazo[4,5-c]pyridin-2-yl)-1H-indazol-5-yl)pyridin-3-yl)-3-methylbutanamide], the “Dry (form by XRD)” value [1, 6] was “Form 1”, the “Wet (form by XRD)” value [1, 6] was “Form 12” and the “Dry (form by XRD)” value [1, 7] was “Form 1”. The “Wet (form by XRD)” value [1, 7] was “Form 12”, the “Dry (form by XRD)” value [1, 8] was “Form 12” and the “Wet (form by XRD)” value [1, 8] was “Form 13”. For the same compound, the “Dry (form by XRD)” value [1, 9] was “Form 1”, the “Wet (form by XRD)” value [1, 9] was “Form 12” and the “Dry (form by XRD)” value [1, 10] was “Form 4”. The “Wet (form by XRD)” value [1, 10] was “Form 12”, the “Dry (form by XRD)” value [1, 11] was “Form 1” and the “Wet (form by XRD)” value [1, 11] was “Form 12”. For the same compound, the “Dry (form by XRD)” value [1, 12] was “Form 1”, the “Wet (form by XRD)” value [1, 12] was “Form 12” and the “Dry (form by XRD)” value [1, 13] was “Form 1”. The “Wet (form by XRD)” value [1, 13] was “Form 12”, the “Dry (form by XRD)” value [1, 14] was “Form 12” and the “Wet (form by XRD)” value [1, 14] was “Form 13”.

With `CC(C)CC(=O)Nc1cncc(-c2ccc3[nH]nc(-c4nc5c(-c6cccc(F)c6)cncc5[nH]4)c3c2)c1` [Form 2, N-(5-(3-(7-(3-fluorophenyl)-3H-imidazo[4,5-c]pyridin-2-yl)-1H-indazol-5-yl)pyridin-3-yl)-3-methylbutanamide] the “form after heating (XRD)” value ([2]; heated in a DSC machine to 90° C.) was “did not change”, the “form after heating (XRD)” value ([2]; heated to 270° C.) was “converted to low crystalline solids” and the “form after heating (XRD)” value ([2]; heated to 330° C.) was “converted to Form 9”. The “form when heated to just before melting” value ([2]; heated to just before melting at 364° C.) was “convert to Form 9” and the “thermodynamic stability between forms (competitive slurry)” value ([3]; MeOH, EtOH, and acetone system at both RT and 50° C.) was “most stable form”.

With `CC(C)CC(=O)Nc1cncc(-c2ccc3[nH]nc(-c4nc5c(-c6cccc(F)c6)cncc5[nH]4)c3c2)c1` [Form 11, N-(5-(3-(7-(3-fluorophenyl)-3H-imidazo[4,5-c]pyridin-2-yl)-1H-indazol-5-yl)pyridin-3-yl)-3-methylbutanamide] the “RH below which the hydrate lost its water” value ([4]; relative humidity) was “less than 20%”.

In the case of `CC(C)CC(=O)Nc1cncc(-c2ccc3[nH]nc(-c4nc5c(-c6cccc(F)c6)cncc5[nH]4)c3c2)c1` [Solvate 3, N-(5-(3-(7-(3-fluorophenyl)-3H-imidazo[4,5-c]pyridin-2-yl)-1H-indazol-5-yl)pyridin-3-yl)-3-methylbutanamide], the “Dry (form by XRD)” value [1, 15] is reported as “Form 2” and the “Wet (form by XRD)” value [1, 15] is reported as “Solvate 3”.

For `CC(C)CC(=O)Nc1cncc(-c2ccc3[nH]nc(-c4nc5c(-c6cccc(F)c6)cncc5[nH]4)c3c2)c1` [Solvate 1, N-(5-(3-(7-(3-fluorophenyl)-3H-imidazo[4,5-c]pyridin-2-yl)-1H-indazol-5-yl)pyridin-3-yl)-3-methylbutanamide], the “Dry (form by XRD)” value ([1]; reslurry in Acetone, RT) was “Low”, the “Wet (form by XRD)” value ([1]; reslurry in Acetone, RT) was “Solvate 1” and the “XRD after drying at 50° C. under vacuum” value [4] was “still low crystallinity solid”. The “XRD after exposure to air overnight” value [4] was “converted to low crystallinity”.

For `CC(C)CC(=O)Nc1cncc(-c2ccc3[nH]nc(-c4nc5c(-c6cccc(F)c6)cncc5[nH]4)c3c2)c1` [Form 9, N-(5-(3-(7-(3-fluorophenyl)-3H-imidazo[4,5-c]pyridin-2-yl)-1H-indazol-5-yl)pyridin-3-yl)-3-methylbutanamide], the “form before and after the DVS scan” value ([5]; DVS scan) was “did not change its form” and the “water absorption (DVS scan)” value ([5]; at 90% RH) was 0.8%.

With `CC(C)CC(=O)Nc1cncc(-c2ccc3[nH]nc(-c4nc5c(-c6cccc(F)c6)cncc5[nH]4)c3c2)c1` [Solvate 2, N-(5-(3-(7-(3-fluorophenyl)-3H-imidazo[4,5-c]pyridin-2-yl)-1H-indazol-5-yl)pyridin-3-yl)-3-methylbutanamide] the “Dry (form by XRD)” value ([1]; reslurry in Acetone, 50° C.) was “Form 4**”, the “Wet (form by XRD)” value ([1]; reslurry in Acetone, 50° C.) was “Solvate 2” and the “Dry (form by XRD)” value [1, 16] was “Form 4**”. For the same compound, the “Wet (form by XRD)” value [1, 16] was “Solvate 2”, the “XRD after drying at 50° C. under vacuum” value [4] was “remained the same as the solid exposed to air overnight” and the “XRD after exposure to air overnight” value [4] was “changed a little”.

With `CC(C)CC(=O)Nc1cncc(-c2ccc3[nH]nc(-c4nc5c(-c6cccc(F)c6)cncc5[nH]4)c3c2)c1` [Form 4, N-(5-(3-(7-(3-fluorophenyl)-3H-imidazo[4,5-c]pyridin-2-yl)-1H-indazol-5-yl)pyridin-3-yl)-3-methylbutanamide] the “thermodynamic stability between forms (competitive slurry)” value ([3]; EA at RT and 50° C.) was “most stable”.
